Experimental data reported in patent publication US5686424A, “2-oxoethyl derivatives as immunosuppressants” (Miles Inc., priority 1995, dated 1997).
Where two headings read alike, the source gives them in different places.

How the values were obtained:
FKBP = FKBP (Homo sapiens, UniProt P62942); test: PPIase Inhibition Assay; type: biochemical
Description: 1) Inhibition of PPIase Activity
This assay follows in principle the procedure described in Kofron et al., 1991, Biochemistry 30:6127.
The three main reagents used are PPIase, a substrate for PPIase, and a selected inhibitor compound of the present invention. The basic principle behind this assay is the conversion of the cis isomer of the substrate to the trans form, which conversion is catalyzed by PPIase. Essentially, inhibition of this PPIase activity is measured for the selected compounds. A peptide chymotrypsin substrate containing a proline in the P2 position is only cleaved by chymotrypsin when the Phe-Pro bond is in the trans isomeric configuration. In the presence of excess chymotrypsin, all of the trans peptide isomers are cleaved within approximately five seconds, leaving only cis forms.
The cis peptide will spontaneously convert to the trans isomer at a slow rate. The cis to trans conversion is catalyzed by isomerases at a much faster rate than this spontaneous conversion. Proteins with PPIase activity are examples of such isomerases. After isomerization, the peptide is cleaved by chymotrypsin releasing p-nitroaniline which can be monitored at 390 nm. The rate of release is then calculated using a first order rate plus offset equation utilizing the ENZFITTER program (Leatherbarrow, BIOSOFT, Cambridge, United Kingdom).
In a plastic cuvette are added 950 ul of ice cold assay buffer (25 mM HEPES, pH 7.8, 100 mM NaCl), 10 uL of FKBP (2.5 uM in 10 mM Tris-Cl pH 7.5, 100 mM NaCl, 1 mM dithiothreitol), 25 ul of chymotrypsin (50 mg/ml in 1 mM HCl) and 10 ul of the test compound at various concentrations in dimethyl sulphoxide. The reaction is initiated by addition of 5 ul of substrate (Succinyl-Ala-Phe-Pro-Phe-para-nitroanilide, 5 mg/ml in 235 mM LiCl in trifluoroethanol).
The absorbance at 390 nm versus time is monitored for 90 sec using a Beckman DU70 spectrophotometer. The absorbance versus time data files are transferred to an IBM XT computer and the rate constants determined using the commercial enzfitter program. For each set of data, the uncatalyzed rate of conversion is measured and the uninhibited enzymatic rate determined. The data are expressed as % Activity remaining and are calculated as follows:
% Activity Remaining=(kobs -kuncat)/(kuninh
where kobs is the rate in the presence of a selected test compound, kuncat is the rate in the absence of enzyme, and kuninh is the rate in the presence of enzyme
Data was plotted as the velocity in the absence of the inhibitor (V-) divided by the velocity in the presence of inhibitor (V+) versus the inhibitor concentration. The IC50 can be determined following linear regression as the inhibitor concentration where

human T-cells = test: Suppression of Human T-Cell Proliferation Assay (PHA-stimulated, [3H]-thymidine incorporation); type: cell-based; details: read-out: IC50
Source text: 2) Human T Lymphocyte Inhibition
Inhibition of mitogen-induced T-cell proliferation can be used to profile immunosuppressive activity of test compounds. In the description of the assay which follows, mitogen-induced T-cell activation was used to test the inhibitory potencies of select compounds of the present invention.
In an assay similar to that described by Bradley in Mishell et al. (Eds.), 1980, Selected Methods in Cellular Immunology, pp 156-161, W. H. Freeman & Co., San Fransisco, Calif., T-cells were stimulated by incubation with phytohemagglutinin (PHA) which binds to cell surface molecules, including the T-cell receptor. This stimulation results in proliferation which can be measured by incorporation of [^3 H]-thymidine into cellular DNA.
The immunosuppressive properties of the compounds of the present invention can be determined by adding various concentrations of the compounds to these cultures and measuring the effect on T-cell proliferation.
Suppression of Human T-Cell Proliferation Assay
Fresh LeukoPaks were obtained from the New York Blood Center, New York, N.Y. The cells, including erythrocytes and leukocytes, were diluted with Hank's Balanced Salt Solution (HBSS) (GIBCO, Grand Island, N.Y.) and layered over Lymphoprep (Nycomed Pharma AS, Oslo, Norway) in sterile 50 ml conical centrifuge tubes. Lymphocytes were isolated at the Hank's/Nycomed interface after centrifugation at 2000×g, 4° C. for 15 min. The lymphocytes were washed with Minimal Essential Medium (GIBCO) containing 2% fetal bovine serum (FBS) (Sigma Chemical Co., St. Louis, Mo.), 1% HEPES buffer (GIBCO) and 1% Penicillin-Stretomycin solution (GIBCO).
T-cells were further purified essentially by sheep erythrocyte (SRBC) rosetting as described by Morimoto et al., 1983, J. Immunol. 130:157. The isolated lymphocytes were adjusted to 2×10^7 cells/ml and 5 ml aliquots of the cell suspension were incubated for 10 minutes at room temperature with 5 ml of a 5% SRBC (Cappel, Organon Technika Corp., West Chester, Pa.) suspension. The cells were gently pelleted by centrifugation at 300 rpm for 10 minutes, followed by a 1 hour incubation at room temperature to allow rosette formation. The cells were gently resuspended,layered over Lymphoprep and centrifuged for 30 minutes at 500×g. The pellet, containing rosetted T-cells and SRBC was treated with ice cold buffered ammonium chloride (GIBCO) to lyse the erythrocytes. T-cells were washed twice with HBSS.
Purified T-cells were resuspended at 2×10^6 cells/ml in complete culture medium composed of RPMI-1640 (Whittaker Bioproducts, Walkerville, Md.) with 10% FBS (Sigma), 2 mM L-glutamine (GIBCO), 1% Penicillin-Streptomycin (GIBCO) and 15 mM HEPES (GIBCO). In 96-well plates (Becton Dickinson, Lincoln Park, N.J.), 0.1 ml aliquots of T-cell suspension were mixed with 0.05 ml of 40 μg/ml PHA-M (Sigma). The compounds of this invention were dissolved in dimethylsulfoxide at 10 mM and various dilutions in complete medium were added in duplicate wells (0.05 ml/well). The plates were incubated at 37° C. in a humidified atmosphere of 5% carbon dioxide and 95% air for 72 hours.
Proliferation was assessed by measurement of [^3 H]-thymidine incorporation. During the last 6 hours of incubation, the cells were pulse labelled with 1 μCi/well of [^3 H]-thymidine (New England Nuclear, Boston, Mass.). The cells were harvested onto glass fiber paper using a plate harvester and the radioactivity incorporated into cellular DNA corresponding to individual wells was measured by standard liquid scintillation counting methods.

NF-AT = NF-AT Inhibition Assay Directed β-Galactosidase Expression in FGL-5 cells; type: cell-based
Description: 3) NF-AT Assay Stimulation of T-cells leads to the appearance of several transcription factors, including one designated "NF-AT". These factors are involved in regulation of gene expression required for immunologic activation. Some of these transcription factors appear to have functions in a wide variety of cell types. By contrast, NF-AT is found primarily in T-cells and its role is restricted to early gene activation. […] Inhibition of NF-AT activity is measured using FGL-5 cells. FGL-5 is a cloned line of stably transfected Jurkat T-cells that contain two construct in which three tandem copies of the NF-AT DNA binding site direct transcription of both murine CD8 and the lacZ gene, encoding β-galactosidase ([…] et al., 1990, Genes & Development 4:1823). When these cells are stimulated with phorbol esters which activate protein kinase C and calcium ionophore to raise the intracellular calcium concentration, transcriptionally active NF-AT is produced. In T-cells, this normally leads to the expression of IL-2, T-cell growth factor. However, in FGL-5 cells NF-AT activation leads to the production of β-galactosidase which can be detected using an appropriate substrate. […] NF-AT Inhibition Assay Directed β-Galactosidase Expression This assay was performed essentially as described (Bierer et al., 1990, Proc. Natl. Acad. Sci. 87:9231). […] The assays were done with exponentially growing cells whose density was not greater than 0.5 million cells/ml. The cells were resuspended to 3 million cells/ml in medium and 0.1 ml was added to wells of a 96-well plate. The compounds of the present invention were dissolved in either ethanol or dimethylsulfoxide at 10 mM and […] of various dilutions in medium were added to cells in duplicate wells. Treatment controls consisted of duplicate wells containing 0.5 ml/well of either medium, ethanol or dimethylsulfoxide. The ethanol and dimethyl sulfoxide were at the same concentration as was used for the compounds. […] Phorbol dibutyrate (Sigma) and Ionomycin (Calbiochem) were dissolved at 50 μg/ml and 2 mM, respectively and stored at -70° C. […] For unstimulated cell controls, 0.5 ml/well of medium was added to duplicate wells. The plates were incubated overnight (16-18 hours) at 37° C. in a humidified atmosphere of 5% CO2 and air. β-galactosidase activity was measured as the fluorescence generated by the cleavage of 4-methyl umbelliferyl-β-D-galactoside (Sigma) at the β-galactoside bond. After overnight incubation, the cells were centrifuged at 500×g for 3 minutes in the 96-well plates and washed 3 times with PBS. […] The percent inhibition by each concentration of the compounds was calculated as: […]

[1] = concentration of inhibitor required for 50% inhibition of enzyme activity, FKBP, substrate Succinyl-Ala-Phe-Pro-Phe-para-nitroanilide, TABLE I
[2] = concentration inhibiting [3H]-thymidine incorporation of PHA-stimulated T-cells by 50%, 72 hours, TABLE 2
[3] = 50% inhibition of NF-AT directed β-galactosidase activity in FGL-5 cells stimulated with phorbol dibutyrate and ionomycin, TABLE 3

FKBP, sequence (P62942 whole entry): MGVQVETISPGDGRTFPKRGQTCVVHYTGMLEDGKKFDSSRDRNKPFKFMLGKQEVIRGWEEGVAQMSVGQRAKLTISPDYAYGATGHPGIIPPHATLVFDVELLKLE

IC50 (FKBP; [1]) | IC50 (NF-AT; [3]) | Compound | IC50 (FKBP) | IC50 (human T-cells) | IC50 (NF-AT) | IC50 (human T-cells; [2])
2.2 µM | 13 µM | CC[C@H](C)[C@H](NC(=O)[C@@H]1CCCCN1CC(=O)C12CC3CC(CC(C3)C1)C2)C(=O)NCc1ccccc1 [Example 36, L-Isoleucine, N-[1-(2-Adamantan-1-yl-2-Oxoethyl)-L-Homoproline] Benzylamide] |  |  |  | 20 µM
> 5 µM |  | CC[C@H](C)[C@H](NC(=O)[C@@H]1CCCN1CC(=O)O)C(=O)NCc1ccccc1 [Example 71, L-Isoleucine, N-[1-(Carboxymethyl)-L-Prolyl] Benzylamide] |  |  |  | > 50 µM
< 5 µM |  | CC[C@H](C)[C@H](NC(=O)[C@@H]1CCCN1CC(=O)N1CCCCC1C)C(=O)NCc1ccccc1 (stereo partly drawn) [Example 75, L-Isoleuclne, N-[1-[2-(2-Methylpiperidine)-2-Oxoethyl]-L-Prolyl] Benzylamide] |  |  |  | 37 µM
> 5 µM |  | CC[C@H](C)[C@H](NC(=O)[C@@H]1CCCN1CC(=O)NCCO)C(=O)NCc1ccccc1 [Example 76, L-Isoleucine, N-[1-(2-(2-Hydroxyethylamine)-2-Oxoethyl)-L-Prolyl] Benzylamide] |  |  |  | > 50 µM
< 5 µM |  | CC[C@H](C)[C@H](NC(=O)[C@@H]1CCCN1CC(=O)N1CCC(c2ccccc2)CC1)C(=O)NCc1ccccc1 [Example 82, L-Isoleucine, N-[1-(2-(4-Phenylpiperidyl)-2-Oxoethyl)-L-Prolyl] Benzylamide] |  |  |  | 20 µM
< 50 µM |  | L-Isoleucine, N-[1-(2-(2-Methoxyphenyl)-2-Oxoethyl)-L-Prolyl] Benzylamide [Example 10] |  |  |  | < 50 µM

Further lines, the compound ahead of its results:

Compound | IC50 (FKBP; [1]) | IC50 (NF-AT; [3]) | IC50 (FKBP) | IC50 (human T-cells) | IC50 (NF-AT) | IC50 (human T-cells; [2])
CC[C@H](C)[C@H](NC(=O)[C@@H]1CCCN1CC(=O)C1CCC2CCCC21)C(=O)NCc1ccccc1 (relative stereo) [Example 40] |  |  | < 5 µM | 17 µM | 19 µM | 
O=C(CN1CCC[C@H]1C(=O)N[C@@H](Cc1ccccc1)C(=O)NCc1ccccc1)c1ccc(-c2ccccc2)cc1 [Example 53, L-Phenylalanine, N-[1-(2-(Biphenyl-4-yl)-2-Oxoethyl)-L-Prolyl] Benzylamide] |  |  | > 50 µM | 16 µM |  | 
CC[C@H](C)[C@H](NC(=O)[C@@H]1CCCN1CC(=O)N1CCC2(CC1)OCCO2)C(=O)NCc1ccccc1 [Example 73, L-Isoleucine, N-[1-(2-(1,4-Dioxa-8-aza-spiro[4.5]dec-8-yl)-2-Oxoethyl)-L-Prolyl] Benzylamide] | < 5 µM |  |  |  |  | > 50 µM
CC[C@H](C)[C@H](NC(=O)[C@@H]1CCCN1CC(=O)N1CCC(Cc2ccccc2)CC1)C(=O)NCc1ccccc1 [Example 74, L-Isoleucine, N-[1-[2-(N-(4-Benzylpiperidyl))-2-Oxoethyl]-L-Prolyl] Benzylamide] | < 5 µM |  |  |  |  | < 50 µM
CC[C@H](C)[C@H](NC(=O)[C@@H]1CCCN1CC(=O)N1CCN(c2ccccc2)CC1)C(=O)NCc1ccccc1 [Example 77, L-Isoleucine, N-[1-[2-(4-Phenylpiperazine)-2-Oxoethyl]-L-Prolyl] Benzylamlde] | < 5 µM |  |  |  |  | 28 µM
CC[C@H](C)[C@H](NC(=O)[C@@H]1CCCN1CC(=O)N1CCCC1)C(=O)NCc1ccccc1 [Example 78, L-Isoleucine, N-[1-[2-(1-Pyrrolidine)-2-Oxoethyl]-L-Prolyl] Benzylamide] | > 5 µM |  |  |  |  | 100 µM
CC[C@H](C)[C@H](NC(=O)[C@@H]1CCCCN1CC(=O)c1cc(OC)c(OC)c(OC)c1)C(=O)NCc1ccccc1 [Example 153, L-Isoleucine, N-[1-(2-(3,4,5-Trimethoxyphenyl)-2-Oxoethyl)-L-Homoprolyl] Benzylamide] |  | > 15 µM |  |  |  | > 15 µM
L-Isoleucine, N-[1-(2-(Carbo-tert-Butoxy)-2-Oxoethyl)-L-Proline] Benzylamide [Example 25] | 0.99 µM |  |  |  |  | 63 µM
L-Isoleuclne, N-[1-(2-(1-Methyl-Cyclohexyl)-2-Oxoethyl)-L-Prolyl] Benzylamide [Example 44] |  |  |  | 12 µM | 24 µM | 
